In patent US20230407243A1, “GENETIC PLATFORM TO INVESTIGATE THE FUNCTIONS OF BACTERIAL DRUG EFFLUX PUMPS” (priority 2022, published 2023):
Read-outs that look alike come from different tables or passages of the source.

Experiments:
Assay type in all cases: cell-based, Escherichia coli
[1] = system: EKO-35-Pore; experiment: MIC susceptibility profiling, porinated strain; settings: for MIC: Escherichia coli
Procedure, shortened: (§1)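 MIC values come from background-corrected OD600 readings (pre-incubation OD subtracted) after 18 h at 37 °C and 900 rpm in MHB II. Compounds were tested in duplicate as 2-fold dilutions. The inoculum came from 18 h LB cultures adjusted to OD600 ~1.0 and diluted 1/2000, and the pore-bearing strains were vancomycin-checked beforehand.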

[2] = system: E. coli ΔtolC; experiment: microbe, parasite or virus in culture
Procedure, shortened: (§2)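 Each compound was serially diluted twofold, in duplicate, and challenged with a 1/2000 dilution of PBS-washed cells (OD600 ~1.0) in MHB II. Plates were shaken at 37 °C for 18 h and OD600 was read at room temperature, with the baseline subtracted.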

[3] = system: E. coli EKO-35; experiment: microbe, parasite or virus in culture; settings: for MIC: Escherichia coli, EKO35, technical duplicate
Procedure, shortened: as §2

[4] = system: wild-type E. coli K-12 str. BW25113; experiment: microbe, parasite or virus in culture; settings: Escherichia coli, BW25113, technical duplicate
Procedure, shortened: as §2

[5] = system: EKO-35 araC::acrBD408A Pore; experiment: MIC susceptibility profiling, porinated efflux platform
Procedure, shortened: as §1

[6] = system: EKO-35 araC::acrD Pore; experiment: as above
Procedure, shortened: as §1

[7] = system: EKO-35 araC::emrKY Pore; experiment: as above
Procedure, shortened: as §1

[8] = system: EKO-35 araC::emrAB; experiment: MIC susceptibility profiling, efflux platform
Procedure, shortened: as §2

[9] = system: EKO-35 araC::mexCD (MexCD from P. aeruginosa); experiment: MIC susceptibility profiling, efflux platform
Procedure, shortened: as §2

[10] = system: EKO-35 araC::acrBD408A; experiment: MIC susceptibility profiling, efflux platform
Procedure, shortened: as §2

[11] = system: EKO-35 araC::acrD; experiment: MIC susceptibility profiling, efflux platform
Procedure, shortened: as §2

[12] = system: EKO-35 araC::macAB; experiment: MIC susceptibility profiling, efflux platform
Procedure, shortened: as §2

[13] = system: EKO-35 araC::mdtBC; experiment: MIC susceptibility profiling, efflux platform
Procedure, shortened: as §2

[14] = system: EKO-35 araC::mdtEF; experiment: MIC susceptibility profiling, efflux platform
Procedure, shortened: as §2

[15] = system: EKO-35 araC::acrEF; experiment: MIC susceptibility profiling, efflux platform
Procedure, shortened: as §2

[16] = system: EKO-35 araC::acrB; experiment: MIC susceptibility profiling, efflux platform
Procedure, shortened: as §2

[17] = system: EKO-35 araC::emrKY; experiment: MIC susceptibility profiling, efflux platform
Procedure, shortened: as §2

[18] = system: wild-type (WT) K-12-Pore; experiment: microbe, parasite or virus in culture; settings: Escherichia coli, technical duplicate
Procedure, shortened: as §1

[19] = system: ΔtolC-Pore; experiment: microbe, parasite or virus in culture
Procedure, shortened: as §1

O=C(N[C@H](CO)[C@H](O)c1ccc([N+](=O)[O-])cc1)C(Cl)Cl [chloramphenicol]
Fold changes of MICs ([1]; EKO-35-Pore compared to EKO-35-Pore (reference)): 1 fold | MIC ([1]; read-out: Minimum inhibitory concentration (MIC), Pore EKO-35): 0.781 µg/mL | MIC ([1]; Table 14A, porinated, technical duplicate, read-out: Minimum inhibitory concentration, EKO-35-Pore): 0.781 µg/mL | MIC ([2]; Escherichia coli, 18 h, read-out: Minimum Inhibitory Concentration, ΔtolC): 1.56 µg/mL | Minimum inhibitory concentration (MIC), ΔtolC ([2]; Table 10, without pore, technical duplicate): 1.563 µg/mL | Fold change of MICs ([3]; EKO-35 compared to EKO-35 (reference)): 1 fold | MIC ([3]; Table 10, without pore, read-out: Minimum inhibitory concentration (MIC), EKO-35): 0.781 µg/mL | MIC ([3]; Table 13A, non-porinated, read-out: Minimum Inhibitory Concentration, EKO-35): 0.781 µg/mL | MIC ([4]; Table 10, without pore, read-out: Minimum inhibitory concentration (MIC), K-12): 6.5 µg/mL | MIC ([4]; Table 13A, non-porinated, read-out: Minimum Inhibitory Concentration, K-12): 6.25 µg/mL | Fold changes of MICs ([5]; EKO-35 araC::acrBD408A Pore compared to EKO-35-Pore): 1 fold | MIC ([5]; Escherichia coli, EKO-35 araC::acrBD408A Pore, technical duplicate, read-out: Minimum inhibitory concentration): 0.781 µg/mL | Fold changes of MICs ([6]; EKO-35 araC::acrD Pore compared to EKO-35-Pore): 1 fold | MIC ([6]; Escherichia coli, Table 14A, porinated, technical duplicate, read-out: Minimum inhibitory concentration, EKO-35 araC::acrD Pore): 0.781 µg/mL | Fold changes of MICs ([7]; EKO-35 araC::emrKY Pore compared to EKO-35-Pore): 1 fold | MIC ([7]; Escherichia coli, EKO-35 araC::emrKY Pore, technical duplicate, read-out: Minimum inhibitory concentration): 0.391 µg/mL | Fold change of MICs ([8]; EKO-35 araC::emrAB compared to EKO-35): 1 fold | MIC ([8]; Escherichia coli, Table 13B, non-porinated, technical duplicate, read-out: Minimum Inhibitory Concentration, EKO-35 araC::emrAB): 0.781 µg/mL | Fold change of MICs ([9]; EKO-35 araC::mexCD compared to EKO-35): 1 fold | MIC ([9]; Table 13B, non-porinated, technical duplicate, read-out: Minimum Inhibitory Concentration, EKO-35 araC::mexCD): 0.781 µg/mL | Fold change of MICs ([10]; EKO-35 araC::acrBD408A compared to EKO-35): 1 fold | MIC ([10]; Escherichia coli, Table 13B, non-porinated, technical duplicate, read-out: Minimum Inhibitory Concentration, EKO-35 araC::acrBD408A): 0.781 µg/mL | Fold change of MICs ([11]; EKO-35 araC::acrD compared to EKO-35): 2 fold | MIC ([11]; Escherichia coli, Table 13A, non-porinated, technical duplicate, read-out: Minimum Inhibitory Concentration, EKO-35 araC::acrD): 1.56 µg/mL | Fold change of MICs ([12]; EKO-35 araC::macAB compared to EKO-35): 1 fold | MIC ([12]; Escherichia coli, Table 13B, non-porinated, technical duplicate, read-out: Minimum Inhibitory Concentration, EKO-35 araC::macAB): 0.781 µg/mL | Fold change of MICs ([13]; EKO-35 araC::mdtBC compared to EKO-35): 1 fold | MIC ([13]; Escherichia coli, Table 13B, non-porinated, technical duplicate, read-out: Minimum Inhibitory Concentration, EKO-35 araC::mdtBC): 0.781 µg/mL | Fold change of MICs ([14]; EKO-35 araC::mdtEF compared to EKO-35): 1 fold | MIC ([14]; Escherichia coli, Table 13A, non-porinated, technical duplicate, read-out: Minimum Inhibitory Concentration, EKO-35 araC::mdtEF): 0.781 µg/mL | Fold change of MICs ([15]; EKO-35 araC::acrEF compared to EKO-35): 2 fold | MIC ([15]; Escherichia coli, Table 13A, non-porinated, technical duplicate, read-out: Minimum Inhibitory Concentration, EKO-35 araC::acrEF): 1.56 µg/mL | Fold change of MICs ([16]; EKO-35 araC::acrB compared to EKO-35): 8 fold | MIC ([16]; Escherichia coli, Table 13A, non-porinated, technical duplicate, read-out: Minimum Inhibitory Concentration, EKO-35 araC::acrB): 6.25 µg/mL | Fold change of MICs ([17]; EKO-35 araC::emrKY compared to EKO-35): 1 fold | MIC ([17]; Escherichia coli, Table 13B, non-porinated, technical duplicate, read-out: Minimum Inhibitory Concentration, EKO-35 araC::emrKY): 0.391 µg/mL | MIC ([18]; Table 10, with pore, read-out: Minimum inhibitory concentration (MIC), Pore K-12): 3.12 µg/mL | MIC ([18]; Table 14A, porinated, read-out: Minimum inhibitory concentration, K-12 (WT)-Pore): 3.12 µg/mL | MIC ([19]; Escherichia coli, 18 h, read-out: Minimum inhibitory concentration, ΔtolC-Pore): 0.781 µg/mL | Minimum inhibitory concentration (MIC), Pore ΔtolC ([19]; Table 10, with pore, technical duplicate): 0.781 µg/mL
